Source: patent US20090269409A1, “PHARMACEUTICAL COMPOSITIONS COMPRISING ESZOPICLONE” (priority 2008, published 2009)
Converted amounts (≈) assume the structure as drawn. Like-named read-outs stand apart in the source and are kept apart here.

Legend:
[1] = Excipient compatibility and stability study of eszopiclone/excipient mixtures (impurity analysis before and after storage); assay type: physicochemical
Description: 1) Eszopiclone and excipient in the stated ratios were mixed well and sifted through an ASTM #40 mesh sieve.
2) The mixture was placed into 20 mL amber glass vials and stored under conditions of 40° C. and 75% relative humidity (RH), or at 50° C., for 1 month. Impurity analyses were performed before and after storage, and values in the table below are percentages of the initial eszopiclone content.

[2] = cited from earlier work
[3] = Saturated solubility of eszopiclone in various solvents (shake flask, HPLC); assay type: physicochemical; settings: thermodynamic from solid, room temperature
Description: 1) 100 mL of the solvent was placed into a 250 mL volumetric flask.
2) 10 mg of eszopiclone was added to the flask.
3) The flask contents were mixed for 24 hours using a rotary shaker to dissolve the eszopiclone completely.
4) Eszopiclone was added at room temperature to the clear solution of 3) in small amounts (up to about 100 mg) until undissolved eszopiclone was noted after shaking.
5) The flask was subjected to shaking for an additional 24 hours.
6) Presence of insoluble eszopiclone was checked and the pH of the solution was recorded.
7) A portion of step 6) solution was subjected to centrifugation until a clear solution was obtained, and/or was filtered through an ASTM #40 mesh sieve.
8) Content of the drug substance was determined using HPLC, comparing with a standard solution prepared preferably in the same solvent.
9) Amount of the drug substance dissolved was calculated as a percentage (weight/volume): […]
The actual amount of drug substance dissolved in mg is:
The solubility of the drug substance in mg/ml in the solvent medium tested is: S=m÷100.
Saturated solubility was determined in solvents as described below.

[4] = Observed susceptibility of eszopiclone to degradation; assay type: physicochemical; settings: with significant increase in the 5-chloro-2-aminopyridine content
[5] = 1 Month, 40° C./75% RH, amber glass vials
[6] = 1 Month, 50° C., amber glass vials

CN1CCN(C(=O)O[C@H]2c3nccnc3C(=O)N2c2ccc(Cl)cn2)CC1 [Eszopiclone, (+)-(5S)-6-(5-chloropyridin-2-yl)-7-oxo-6,7-dihydro-[3,4-b]pyrazin-5-yl-4-methylpiperazine-1-carboxylate]
Imp (5-chloro-2-aminopyridine) [1, 5]: 0.47 percentages of the initial eszopiclone content
T.I. (Total impurities) [1, 5]: 0.33 percentages of the initial eszopiclone content
Imp (5-chloro-2-aminopyridine) [1, 6]: 0.35 percentages of the initial eszopiclone content
T.I. (Total impurities) [1, 6]: 0.5 percentages of the initial eszopiclone content
Imp (5-chloro-2-aminopyridine) ([1]; Initial): 0.01 percentages of the initial eszopiclone content
T.I. (Total impurities) ([1]; Initial): 0.02 percentages of the initial eszopiclone content
Solubility (descriptive) ([2]; in ethanol): slightly soluble
Solubility (descriptive) ([2]; in phosphate buffer of pH 3.2): soluble
Solubility (descriptive) ([2]; in water): very slightly soluble
solubility at 24 h ([3]; aqueous buffer, Acetate buffer (pH 4.5)): 11600 µg/mL (≈ 29.9 mM)
solubility at 24 h ([3]; aqueous buffer, Phosphate buffer (pH 6.8)): 680 µg/mL (≈ 1.75 mM)
solubility at 24 h ([3]; aqueous buffer, Phosphate buffer (pH 7.5)): 330 µg/mL (≈ 0.849 mM)
solubility at 24 h ([3]; aqueous with cosolvent or surfactant or cyclodextrin, 0.5% Sodium lauryl sulphate in water): 1830 µg/mL (≈ 4.71 mM)
solubility at 24 h ([3]; simulated gastric fluid, 0.01N HCl): 4180 µg/mL (≈ 10.8 mM)
solubility at 24 h ([3]; simulated gastric fluid, 0.1N Hydrochloric acid (pH 1.2)): 39100 µg/mL (≈ 101 mM)
solubility at 24 h ([3]; simulated gastric fluid, Acid buffer (pH 1), potassium chloride/HCl): 23000 µg/mL (≈ 59.2 mM)
solubility at 24 h ([3]; Simulated gastric fluid (pH 1.2)): 8180 µg/mL (≈ 21 mM)
solubility at 24 h ([3]; Water): 300 µg/mL (≈ 0.772 mM)
Susceptibility to oxidative degradation (including by atmospheric oxygen) and acid hydrolysis [4]: highly susceptible
